In patent publication US20050209278A1, “Piperidinyl- and piperazinyl-sulfonylmethyl hydroxamic acids and their use as protease inhibitors” (priority 2002, published 2005) one finds Ki data, which are given here for 43 compounds.

Where a name gives a salt, the structure may show the parent alone.

For the first experiment, the target named is T1, MMP-1 (Homo sapiens, UniProt P03956).
T1 construct: made in house; host or cells: MMP-1-transfected HT-1080 cells (spent media)
T1 sequence (P03956 100-469): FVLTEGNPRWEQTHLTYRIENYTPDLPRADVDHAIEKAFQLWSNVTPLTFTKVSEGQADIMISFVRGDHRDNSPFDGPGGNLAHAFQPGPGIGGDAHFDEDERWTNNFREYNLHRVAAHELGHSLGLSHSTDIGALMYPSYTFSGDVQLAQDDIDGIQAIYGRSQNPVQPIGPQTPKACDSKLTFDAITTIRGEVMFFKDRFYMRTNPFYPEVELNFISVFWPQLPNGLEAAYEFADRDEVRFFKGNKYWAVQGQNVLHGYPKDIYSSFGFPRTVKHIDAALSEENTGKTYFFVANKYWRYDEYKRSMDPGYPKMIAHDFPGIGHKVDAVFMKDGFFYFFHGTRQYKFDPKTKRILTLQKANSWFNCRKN
The experiment in a line: In vitro MMP inhibition, Ki determination (fluorogenic substrate II). The experiment is classed as biochemical. Particulars: MMP-1 Ki, value not in parenthesis. On the procedure: Several hydroxamic acids and salts thereof were analyzed in in vitro assays to determine their ability to inhibit the MMP cleavage of peptide substrates. […] and IC50 constants were calculated from the assayed hydroxamic acid-MMP interactions.
Human recombinant MMP-1, MMP-2, MMP-9, MMP-13, and MMP-14 were used in this assay. All enzymes were prepared in Assignee's laboratories following usual laboratory procedures. Protocols for the preparation and use of these enzymes are available in the scientific literature. See, e.g., Enzyme Nomenclature (Academic Press, San Diego, Calif., 1992) (and the citations therein). See also, Freije et al., “Molecular cloning and expression of collagenase-3, a novel human matrix metalloproteinase produced by breast carcinomas,” J Biol. Chem., 269(24), 16766-16773 (1994).
The MMP-1 proenzyme was purified from the spent media of MMP-1-transfected HT-1080 cells provided by Dr. Harold Welgus of Washington University (St. Louis, Mo.). The protein was purified on a zinc chelating column.
All MMPs were activated using 4-aminophenylmercuric acetate (“APMA”, Sigma Chemical, St. Louis, Mo.) or trypsin. MMP-9 also was activated using human recombinant MMP-3 (purified in Assignee's laboratory following standard cloning and purification techniques).
Two fluorogenic, methoxycoumarin-containing polypeptide substrates were used in the MMP inhibition assays: [drawing 427] Here, “Dpa” is 3-(2,4-dinitrophenyl)-L-2,3-diaminopropionyl group, and “MCA” is 7-methoxycoumarin-4-yl acetyl. Substrate (I) was purchased from Baychem (Redwood City, Calif.), and substrate II was prepared Assignee's laboratory. Substrate I was used in the IC50 determination assays, while substrate II was used in the Ki determination assays. In the absence of MMP inhibitory activity, either substrate is cleaved at the Gly-Leu peptide bond. This cleavage separates the highly fluorogenic peptide from the 2,4-dinitrophenyl quencher, thus resulting in increase of fluorescent intensity.
The stock solutions of the assayed hydroxamic acids (or salts thereof) were prepared in 1% dimethyl sulfoxide (DMSO). These stock solutions were diluted in Buffer A (100 mM Tris-HCl, 100 mM NaCl, 10 mM CaCl2, 0.05% polyoxyethylene 23 lauryl ether, pH 7.5) to obtain solutions with different hydroxamic acid concentrations, i.e., assay solutions with different concentrations of the assayed MMP inhibitory compound. The experiment controls contained the same amount of Buffer A/DMSO as the assayed sample, but contained no hydroxamic acid (or salt thereof).
The assays from which the Ki determinations were made were performed as follows. The assayed hydroxamic acid samples were incubated in separate wells of untreated white polystyrene plates (Nunc Nalgene International, Rochester, N.Y.), and analyzed on a Tecan SpectraFlour Plus plate reader. The excitation wavelength was 330 nm, and the emission wavelength—420 nm. All samples (assayed hydroxamic acids and controls) were incubated in separate plate wells at room temperature for 1 hr in the presence of 4 μM of MMP substrate (II). In the absence of MMP inhibitory activity, substrate II was cleaved at the Gly-Leu bond resulting in an increase of relative fluorescence. Inhibition was observed as a reduced rate of this increase in relative fluorescence. The various hydroxamic acids were analyzed using a single low enzyme concentration with a single substrate concentration fixed at or below the Km. This protocol is a modification of method by Knight et al., FEBS Lett., 296(3), 263-266 (1992). Apparent inhibitory constants were determined by non-linear regression of reaction velocity as a function of inhibitor and enzyme concentration using Morrison's equation, as described by Kuzmic, Anal. Biochem. 286, 45-50 (2000). […] Since the substrate concentration was chosen to be at or below the Km, the apparent Ki's from this analysis were reported as Ki's without correction for the influence of substrate.
As for `O=C(NO)C1(S(=O)(=O)N2CCN(c3ccc(COCC(F)(F)C(F)(F)C(F)(F)C(F)F)cc3)CC2)CCOCC1` [Example 68], the Ki (commonly a measure of affinity in units of concentration, obtained from inhibition or displacement) was more than 10 µM.
Take `O=C(NO)C1(S(=O)(=O)N2CCN(c3ccc(COCC(F)(F)C(F)(F)C(F)(F)F)cc3)CC2)CCOCC1` [Example 69]: the Ki was more than 10 µM.

The same experiment, now with this note: human recombinant enzyme; 4 μM substrate II; room temperature, 1 hr; read-out: MMP-1 Ki.
On to `CCCCCc1ccc(N2CCN(S(=O)(=O)C3(C(=O)NO)CCOCC3)CC2)c(F)c1` [Example 23, 4-{[4-(2-fluoro-4-pentylphenyl)piperazin-1-yl]sulfonyl}-N-hydroxytetrahydro-2H-pyran-4-carboxamide Hydrochloride], for which the Ki is more than 10 µM.
Same read-out and setting: the result for `CCCCc1ccc(C2CCN(S(=O)(=O)C3(C(=O)NO)CCN(C4CC4)CC3)CC2)nc1` [Example 24, 4-{[4-(5-butylpyridin-2-yl)piperidin-1-yl]sulfonyl}-1-cyclopropyl-N-hydroxypiperidine-4-carboxamide Hydrochloride] reads more than 10 µM; that for `O=C(NO)C1(S(=O)(=O)N2CCC(c3ccc(OCC(F)(F)F)cc3)CC2)CCN(C2CC2)CC1` [Example 25, 1-cyclopropyl-N-hydroxy-4-({4-[4-(2,2,2-trifluoroethoxy)phenyl]piperidin-1-yl}sulfonyl)piperidine-4-carboxamide Hydrochloride], more than 10 µM; that for `CCCCCCCCC1CCN(S(=O)(=O)C2(C(=O)NO)CCOCC2)CC1` [Example 26, 4-(4-octyl-piperidine-1-sulfonyl)-tetrahydro-pyran-4-carboxylic Acid Hydroxyamide], 2.97 µM.
Turning to `O=C(NO)C1(S(=O)(=O)N2CCC(c3cnc(OCC(F)(F)C(F)(F)F)cn3)CC2)CCOCC1` [Example 27], the Ki came to 4.78 µM.

Staying with this experiment, now noted: value not in parenthesis; read-out: MMP-1 Ki.
In the case of `CCCCCc1cnc(N2CCN(S(=O)(=O)C3(C(=O)NO)CCOCC3)CC2)s1` [Example 56], the inhibition constant (Ki) was more than 10 µM.
As for `O=C(NO)C1(S(=O)(=O)N2CCN(c3ccc(-c4ccc(Cl)cc4)cn3)CC2)CCOCC1` [Example 60], the inhibition constant (Ki) was 0.555 µM.
Same read-out and setting: the result for `C=CCCOC(=O)N1CCC(C(=O)NO)(S(=O)(=O)N2CCN(c3ccc(OCCCC)cc3)CC2)CC1` [Example 101] reads more than 10 µM; that for `COCCN1CCC(C(=O)NO)(S(=O)(=O)N2CCN(c3ccc(OCCCC(F)(F)F)cc3F)CC2)CC1` [Example 102], more than 10 µM.
Regarding `O=C(NO)C1(S(=O)(=O)N2CCN(c3ncc(Br)cn3)CC2)CCOCC1` [Example 103], the Ki was 0.686 µM.
For the compound `O=C(NO)C1(S(=O)(=O)N2CCN(c3ncc(Br)cn3)CC2)CCOCC1` [Example 104], the Ki stood at 0.835 µM.
As for `O=C(NO)C1(S(=O)(=O)N2CCN(c3ncccn3)CC2)CCOCC1` [Example 106], the inhibition constant (Ki) was 1.47 µM.
Regarding `O=C(NO)C1(S(=O)(=O)N2CCN(c3ncccn3)CC2)CCOCC1` [Example 107], the inhibition constant (Ki) was 1.19 µM.
Same read-out and setting: the value for `COc1ccc(N2CCN(S(=O)(=O)C3(C(=O)NO)CCOCC3)CC2)nc1` [Example 108] was more than 10 µM; that for `COc1ccc(N2CCN(S(=O)(=O)C3(C(=O)NO)CCOCC3)CC2)nc1` [Example 109] was more than 10 µM.
In the case of `CCCCCCCCCc1cnc(N2CCN(S(=O)(=O)C3(C(=O)NO)CCOCC3)CC2)nc1` [Example 110], the Ki was more than 10 µM.
Turning to `CCCCCCCCCc1cnc(N2CCN(S(=O)(=O)C3(C(=O)NO)CCOCC3)CC2)nc1` [Example 111], the Ki is more than 10 µM.
On the same count and under the same terms, the result for `O=C(NO)C1(S(=O)(=O)N2CCN(c3ccc(OCCCC(F)(F)F)cc3)CC2)CCN(c2cnccn2)CC1` [Example 112] reads more than 10 µM.
Same read-out and setting: the value for `CCCCOc1ccc(N2CCN(S(=O)(=O)C3(C(=O)NO)CCN(C(=O)OCCF)CC3)CC2)cc1` [Example 113] was more than 10 µM.
Same read-out and setting: the result for `CCc1ccc(N2CCN(S(=O)(=O)C3(C(=O)NO)CCOCC3)CC2)nc1` [Example 114] reads 1.61 µM.
As to `CCCCOc1ccc(N2CCN(S(=O)(=O)C3(C(=O)NO)CCN(C(=O)OCC(F)(F)F)CC3)CC2)cc1` [Example 115], the Ki is more than 10 µM.
`CC(C)(C)N1CCC(C(=O)NO)(S(=O)(=O)N2CCN(c3ccc(OCCCC(F)(F)F)cc3F)CC2)CC1` [Example 116]: the Ki is more than 10 µM.
For the compound `O=C(NO)C1(S(=O)(=O)N2CCN(c3ccc(OCCCC(F)(F)F)cc3F)CC2)CCOCC1` [Example 117], the Ki was more than 10 µM.
Regarding `CCCCOc1ccc(N2CCN(S(=O)(=O)C3(C(=O)NO)CCN(C(=O)NCCOC)CC3)CC2)cc1` [Example 118], the Ki was more than 10 µM.
For `COCCN1CCC(C(=O)NO)(S(=O)(=O)N2CCN(c3ccc(OCC(F)(F)F)cc3)CC2)CC1` [Example 119], the Ki is more than 10 µM.
On the same count and under the same terms, the result for `CCCCOc1ccc(N2CCN(S(=O)(=O)C3(C(=O)NO)CCN(c4ccc(O)cc4)CC3)CC2)cc1` [Example 121] reads more than 10 µM; that for `O=C(c1cccnc1)N1CCC(C(=O)NO)(S(=O)(=O)N2CCN(c3ccc(OCCCC(F)(F)F)cc3)CC2)CC1` [Example 122], more than 10 µM.
Same read-out and setting: the value for `CCCCOc1ccc(N2CCN(S(=O)(=O)C3(C(=O)NO)CCN(C(=S)N(C)C)CC3)CC2)cc1` [Example 123] was more than 10 µM; that for `CCCCOc1ccc(N2CCN(S(=O)(=O)C3(C(=O)NO)CCN(C(=O)N4CCOCC4)CC3)CC2)cc1` [Example 124] was more than 10 µM; that for `CCCCOc1ccc(N2CCN(S(=O)(=O)C3(C(=O)NO)CCN(c4ccc(C)cn4)CC3)CC2)cc1` [Example 125] was more than 10 µM.
`CCCCOc1ccc(N2CCN(S(=O)(=O)C3(C(=O)NO)CCN4CCCC4C3)CC2)cc1F` (stereo not shown) [Example 126]: the Ki is more than 10 µM.
On the same count and under the same terms, the result for `CCCCOc1ccc(N2CCN(S(=O)(=O)C3(C(=O)NO)CCN(C(=O)c4cc5ccccc5o4)CC3)CC2)cc1` [Example 127] reads more than 10 µM.
Consider `CC(C)CCOc1ccc(N2CCN(S(=O)(=O)C3(C(=O)NO)CCN(C4CC4)CC3)CC2)cc1` [Example 128], for which the Ki was more than 10 µM.
As to `CCCCOc1ccc(N2CCN(S(=O)(=O)C3(C(=O)NO)CCN(c4ccc(OCCOC)nn4)CC3)CC2)cc1` [Example 129], the Ki was more than 10 µM.
Still for that read-out and setting: the value for `CCCCOc1ccc(N2CCN(S(=O)(=O)C3(C(=O)NO)CCN(c4nccc(C(F)(F)F)n4)CC3)CC2)cc1` [Example 130] was more than 10 µM.
Regarding `CCCCOc1ccc(N2CCN(S(=O)(=O)C3(C(=O)NO)CCN(c4ccc(C)nc4)CC3)CC2)cc1` [Example 131], the Ki is more than 10 µM.
The same measure, in the same setting: the value for `O=C1c2ccccc2C(=O)N1CCCCc1ccc(N2CCN(S(=O)(=O)C3(C(=O)NO)CCOCC3)CC2)nc1` [Example 132] was 0.0661 µM; that for `CC(C)CCc1ccc(N2CCN(S(=O)(=O)C3(C(=O)NO)CCOCC3)CC2)nc1` [Example 133] was more than 10 µM; that for `CCCc1ccc(N2CCN(S(=O)(=O)C3(C(=O)NO)CCOCC3)CC2)nc1` [Example 136] was 2.38 µM.
Same read-out and setting: the value for `Cc1ccc(N2CCN(S(=O)(=O)C3(C(=O)NO)CCOCC3)CC2)nc1` [Example 138] was 1.38 µM; that for `CCCCOc1ccc(N2CCN(S(=O)(=O)C3(C(=O)NO)CCN(c4cc(C)ccn4)CC3)CC2)cc1` [Example 139] was 7.24 µM.
